From patent US20250340538A1, “IMIDAZOLONE DERIVATIVES AS INHIBITORS OF PROTEIN KINASES IN PARTICULAR DYRK1A, CLK1 AND/OR CLK4” (PERHA PHARMACEUTICALS, priority 2021, published 2025)

What was measured:
Type in all cases: biochemical
CLK1 = molecular target: T1, CLK1 (Homo sapiens, UniProt P49759); assay: Radiometric protein kinase assay (33PanQinase Activity Assay), CLK1; settings: class by IC50 on CLK1, from dose-response curves; read-out: Potency Class CLK1
T1 construct: GST-fusion or His-tag (not specified per kinase); purchased ProQinase GmbH; host or cells: Sf9 insect cells or E. coli (not specified per kinase)
Outline: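 Human kinase (Sf9- or E. coli-expressed, tagged, purified) + substrate + [γ-33P]-ATP; cpd 10 μM→30 nM, 10 pts, 1% DMSO; 30 °C, 60 min; H3PO4 stop; scintillation count; IC50 from curve.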

CLK4 = molecular target: T2, CLK4 (Homo sapiens, UniProt Q9HAZ1); assay: Radiometric protein kinase assay (33PanQinase Activity Assay), CLK4; settings: read-out: IC50 on CLK4 (most potent CLK4 inhibitors)
T2 construct: GST-fusion or His-tag (not specified per kinase); purchased ProQinase GmbH; host or cells: Sf9 insect cells or E. coli (not specified per kinase)
Experimental: (§1) Assays were performed by ProQinase GmbH (Engesserstr. 4, D-79108 Freiburg, Germany. www.proqinase.com). The IC50 profile of all compounds was determined using 12 protein kinases (CDK2/cyclin E, CK1ε, CLK1, 2, 3, 4, DYRK1A, 1B, 2, 3, 4, GSK3β).
(§2) The compounds were provided as […] in 100% DMSO. Prior to testing, the 1 μM stock solutions were subjected to a serial, semi-logarithmic dilution using 100% DMSO as a solvent. […] In the process, 90 μl H2O were added to each well of each compound dilution plate. To minimize potential precipitation, the H2O was added to each plate only a few minutes before the transfer of the compound solutions into the assay plates. The plate was shaken thoroughly, resulting in a compound dilution plate/10% DMSO.
(§3) For the assays (see below), 5 μL solution from each well of the compound dilution plates/10% DMSO were transferred into the assay plates. The final volume of the assay was 50 μL. All compounds were tested at 10 final assay concentrations in the range from 10 μM to 30 nM. The final DMSO concentration in the reaction cocktails was 1% in all cases.
(§4) All protein kinases provided by ProQinase were expressed in Sf9 insect cells or in E. coli as recombinant GST-fusion proteins or His-tagged proteins, either as full-length or enzymatically active fragments. All kinases were produced from human cDNAs and purified by either GSH-affinity chromatography or immobilized metal. Affinity tags were removed from a number of kinases during purification. The purity of the protein kinases was examined by SDS-PAGE/Coomassie staining, the identity was checked by mass spectroscopy.
(§5) A radiometric protein kinase assay (33PanQinase® Activity Assay) was used for measuring the kinase activity of the 12 protein kinases. All kinase assays were performed in 96-well FlashPlates™ from PerkinElmer (Boston, MA, USA) in a 50 μL reaction volume. The reaction cocktail was pipetted in four steps in the following order: • 25 μL of assay buffer (standard buffer/[γ-^33P]-ATP), • 10 μL of ATP solution (in H2O), • 5 μL of test compound (in 10% DMSO), • 10 μL of enzyme/substrate mixture.
(§6) The reaction cocktails were incubated at 30° C. for 60 minutes. The reaction was stopped with 50 μL of 2% (v/v) H3PO4, plates were aspirated and washed two times with 200 μL 0.9% (w/v) NaCl. Incorporation of ^33Pi was determined with a microplate scintillation counter (Microbeta, Wallac). The IC50 values for all compounds were calculated from the dose response curves
(§7) As a parameter for assay quality, the Z′-factor (Zhang et al., J. Biomol. Screen. 2: 67-73, 1999) for the low and high controls of each assay plate (n=8) was used. ProQinase's criterion for repetition of an assay plate is a Z′-factor below 0.4 (Iversen et al., J. Biomol. Screen. 3: 247-252, 2006).

CLK3 = molecular target: T3, CLK3 (Homo sapiens, UniProt P49761); assay: Radiometric protein kinase assay (33PanQinase Activity Assay), CLK3; settings: read-out: IC50 on CLK3 (most potent CLK3 inhibitors)
T3 construct: GST-fusion or His-tag (not specified per kinase); purchased ProQinase GmbH; host or cells: Sf9 insect cells or E. coli (not specified per kinase)
Experimental: as §1, §2, §3, §4, §5, §6, §7

DYRK1A = molecular target: T4, DYRK1A (Homo sapiens, UniProt Q13627); assay: Radiometric protein kinase assay (33PanQinase Activity Assay), DYRK1A; settings: for IC50: class by IC50 on DYRK1A, from dose-response curves, read-out: Potency Class DYRK1A; for Selectivity Class DYRK1A vs. CLK1: ratio of IC50 on CLK1 over IC50 on DYRK1A; for Selectivity Class DYRK1A vs. DYRK1B: ratio of IC50 on DYRK1B over IC50 on DYRK1A
T4 construct: GST-fusion or His-tag (not specified per kinase); purchased ProQinase GmbH; host or cells: Sf9 insect cells or E. coli (not specified per kinase)
Outline: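 Recombinant human kinase, expressed in Sf9 or E. coli, in a radiometric [γ-33P]-ATP assay at 30 °C for 60 min. Compounds tested at 10 concentrations from 10 μM to 30 nM, 1% DMSO final. 33Pi incorporation measured by scintillation counting; IC50 from dose-response curves.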

DYRK3 = molecular target: T5, DYRK3 (Homo sapiens, UniProt O43781); assay: Radiometric protein kinase assay (33PanQinase Activity Assay), DYRK3; settings: read-out: IC50 on DYRK3 (most potent DYRK3 inhibitors)
T5 construct: GST-fusion or His-tag (not specified per kinase); purchased ProQinase GmbH; host or cells: Sf9 insect cells or E. coli (not specified per kinase)
T5 sequence (O43781 1-588): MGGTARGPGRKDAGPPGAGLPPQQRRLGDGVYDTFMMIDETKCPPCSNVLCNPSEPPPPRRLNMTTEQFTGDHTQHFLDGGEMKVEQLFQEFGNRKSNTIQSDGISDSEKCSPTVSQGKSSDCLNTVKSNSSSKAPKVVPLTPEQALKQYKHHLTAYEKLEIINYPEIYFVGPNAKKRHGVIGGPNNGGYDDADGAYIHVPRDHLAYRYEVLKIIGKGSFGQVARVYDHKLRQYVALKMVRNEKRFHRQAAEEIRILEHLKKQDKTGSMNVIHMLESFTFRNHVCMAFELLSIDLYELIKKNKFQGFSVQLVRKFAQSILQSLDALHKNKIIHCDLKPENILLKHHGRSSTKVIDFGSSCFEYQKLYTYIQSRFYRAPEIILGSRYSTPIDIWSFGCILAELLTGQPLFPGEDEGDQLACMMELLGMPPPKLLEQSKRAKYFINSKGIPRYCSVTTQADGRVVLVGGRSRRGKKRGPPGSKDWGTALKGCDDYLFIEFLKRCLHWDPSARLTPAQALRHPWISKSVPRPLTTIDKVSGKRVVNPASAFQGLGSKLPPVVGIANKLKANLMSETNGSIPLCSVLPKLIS
Experimental: as §1, §2, §3, §4, §5, §6, §7

T3 sequence (P49761 whole entry, the tested form may be a part): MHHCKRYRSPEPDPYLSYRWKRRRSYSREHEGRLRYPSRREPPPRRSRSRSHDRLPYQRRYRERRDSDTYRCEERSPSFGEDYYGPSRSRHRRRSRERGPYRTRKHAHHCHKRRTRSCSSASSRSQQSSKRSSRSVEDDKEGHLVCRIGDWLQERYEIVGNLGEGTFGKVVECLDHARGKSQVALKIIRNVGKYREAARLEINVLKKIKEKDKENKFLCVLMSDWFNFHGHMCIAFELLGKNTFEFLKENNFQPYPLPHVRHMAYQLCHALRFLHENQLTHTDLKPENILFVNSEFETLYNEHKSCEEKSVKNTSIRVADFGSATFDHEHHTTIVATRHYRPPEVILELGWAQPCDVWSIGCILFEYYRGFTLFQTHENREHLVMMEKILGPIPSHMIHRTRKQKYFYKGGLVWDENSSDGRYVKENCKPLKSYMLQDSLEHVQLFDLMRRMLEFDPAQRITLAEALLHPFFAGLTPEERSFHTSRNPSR
T1 sequence (P49759 whole entry, the tested form may be a part): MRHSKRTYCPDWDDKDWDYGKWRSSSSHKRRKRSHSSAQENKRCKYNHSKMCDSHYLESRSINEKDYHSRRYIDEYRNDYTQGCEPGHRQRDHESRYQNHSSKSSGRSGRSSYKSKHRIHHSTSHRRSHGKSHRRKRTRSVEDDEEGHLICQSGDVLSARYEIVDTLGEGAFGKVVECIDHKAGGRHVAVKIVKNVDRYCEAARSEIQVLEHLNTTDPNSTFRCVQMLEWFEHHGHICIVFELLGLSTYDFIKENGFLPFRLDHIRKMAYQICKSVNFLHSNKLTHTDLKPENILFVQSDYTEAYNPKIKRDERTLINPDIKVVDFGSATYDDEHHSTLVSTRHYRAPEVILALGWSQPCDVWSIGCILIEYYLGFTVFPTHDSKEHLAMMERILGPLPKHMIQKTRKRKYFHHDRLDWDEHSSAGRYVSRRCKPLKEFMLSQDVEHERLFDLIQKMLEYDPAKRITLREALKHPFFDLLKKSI
T2 sequence (Q9HAZ1 whole entry, the tested form may be a part): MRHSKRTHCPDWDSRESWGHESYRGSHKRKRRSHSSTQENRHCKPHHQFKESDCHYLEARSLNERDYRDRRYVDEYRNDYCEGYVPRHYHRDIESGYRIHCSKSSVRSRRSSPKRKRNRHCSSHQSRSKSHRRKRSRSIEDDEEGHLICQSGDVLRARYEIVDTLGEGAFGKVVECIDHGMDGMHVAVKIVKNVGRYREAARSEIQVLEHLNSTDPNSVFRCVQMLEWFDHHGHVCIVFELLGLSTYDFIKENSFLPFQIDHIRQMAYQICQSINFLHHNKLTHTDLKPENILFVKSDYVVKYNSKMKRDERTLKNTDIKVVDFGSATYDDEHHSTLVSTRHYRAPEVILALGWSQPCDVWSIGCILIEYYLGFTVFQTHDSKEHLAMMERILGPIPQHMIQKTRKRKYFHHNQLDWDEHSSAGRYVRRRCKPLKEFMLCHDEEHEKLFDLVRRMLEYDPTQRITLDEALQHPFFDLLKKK

IC50 (CLK1) [nM] | IC50 (CLK4) [nM] | IC50 (CLK3) [nM] | IC50 (DYRK1A) [nM] | Selectivity Class DYRK1A vs. CLK1 (DYRK1A) | Selectivity Class DYRK1A vs. DYRK1B (DYRK1A) | IC50 (DYRK3) [nM] | SMILES
25 to 50 | ≤ 10 | ≤ 500 | 25 to 50 | III (ratio between 0.5 and 2 fold) | III (ratio between 0.5 and 2 fold) | ≤ 250 | O=C1NC(NC2CCCCC2)=N/C1=C\c1ccc2ncccc2n1 [Compound 79, (4Z)-2-(cyclohexylamino)-4-(1,5-naphthyridin-2-ylmethylene)-1H-imidazol-5-one]
> 50 |  | ≤ 500 | > 50 | III (ratio between 0.5 and 2 fold) | III (ratio between 0.5 and 2 fold) |  | COC[C@@H](CC(C)C)NC1=N/C(=C\c2ccc3ncccc3n2)C(=O)N1 [Compound 81, (4Z)-2-[[(1R)-1-(methoxymethyl)-3-methyl-butyl]amino]-4-(1,5-naphthyridin-2-ylmethylene)-1H-imidazol-5-one]
